# How the values were obtained:
# Test in all cases: Agar dilution antibacterial MIC assay
# Format in all cases: cell-based
# [1] = system: Candida albicans CCH 442; settings: organism code TT, BHI agar, 35-37 °C, 20 to 24 hours, unit assumed
# Protocol: (§1) Representative compounds of the present invention were assayed in vitro for antibacterial activity as follows: Twelve petri dishes containing successive aqueous dilutions of the test compound mixed with 10 mL of sterilized Brain Heart Infusion (BHI) agar (Difco 0418-01-5) were prepared. Each plate was inoculated with 1:100 (or 1:10 for slow-growing strains, such as Micrococcus and Streptococcus) dilutions of up to 32 different microorganisms, using a Steers replicator block. […] In addition, a control plate, using BHI agar containing no test compound, was prepared and incubated at the beginning and end of each test.
# (§2) An additional plate containing a compound having known susceptibility patterns for the organisms being tested and belonging to the same antibiotic class as the test compound was also prepared and incubated as a further control, as well as to provide test-to-test comparability.
# (§3) After incubation, each plate was visually inspected. The minimum inhibitory concentration (MIC) was defined as the lowest concentration of drug yielding no growth, a slight haze, or sparsely isolated colonies on the inoculum spot as compared to the growth control.
# [2] = system: Enterococcus faecium ATCC 8043; settings: organism code II, BHI agar, 35-37 °C, 20 to 24 hours, unit assumed
# Protocol: as §1, §2, §3
# [3] = system: Escherichia coli DC-2; settings: organism code SS, BHI agar, 35-37 °C, 20 to 24 hours, unit assumed
# Protocol: as §1, §2, §3
# [4] = system: Escherichia coli JUHL; settings: organism code QQ, BHI agar, 35-37 °C, 20 to 24 hours, unit assumed
# Protocol: as §1, §2, §3
# [5] = system: Escherichia coli SS; settings: organism code RR, BHI agar, 35-37 °C, 20 to 24 hours, unit assumed
# Protocol: as §1, §2, §3
# [6] = system: Haemophilis Influenzae DILL AMP R; settings: organism code WW, BHI agar, 35-37 °C, 20 to 24 hours, unit assumed
# Protocol: as §1, §2, §3
# [7] = system: Micrococcus luteus ATCC 4698; settings: organism code PP, BHI agar, 35-37 °C, 20 to 24 hours, unit assumed
# Protocol: as §1, §2, §3
# [8] = system: Micrococcus luteus ATCC 9341; settings: organism code OO, BHI agar, 35-37 °C, 20 to 24 hours, unit assumed
# Protocol: as §1, §2, §3
# [9] = system: Mycobacterium smegmatis ATCC 114; settings: organism code UU, BHI agar, 35-37 °C, 20 to 24 hours, unit assumed
# Protocol: as §1, §2, §3
# [10] = system: Nocardia Asteroides ATCC9970; settings: organism code VV, BHI agar, 35-37 °C, 20 to 24 hours, unit assumed
# Protocol: as §1, §2, §3
# [11] = system: Staphylococcus aureus 1775; settings: organism code GG, BHI agar, 35-37 °C, 20 to 24 hours, unit assumed
# Protocol: as §1, §2, §3
# [12] = system: Staphylococcus aureus A-5278; settings: organism code CC, BHI agar, 35-37 °C, 20 to 24 hours, unit assumed
# Protocol: as §1, §2, §3
# [13] = system: Staphylococcus aureus A5177; settings: organism code BB, BHI agar, 35-37 °C, 20 to 24 hours, unit assumed
# Protocol: as §1, §2, §3
# [14] = system: Staphylococcus aureus ATCC 6538P; settings: organism code AA, BHI agar, 35-37 °C, 20 to 24 hours, unit assumed
# Protocol: as §1, §2, §3
# [15] = system: Staphylococcus aureus CMX 553; settings: organism code FF, BHI agar, 35-37 °C, 20 to 24 hours, unit assumed
# Protocol: as §1, §2, §3
# [16] = system: Staphylococcus aureus CMX 642A; settings: organism code DD, BHI agar, 35-37 °C, 20 to 24 hours, unit assumed
# Protocol: as §1, §2, §3
# [17] = system: Staphylococcus aureus NCTC10649M; settings: organism code EE, BHI agar, 35-37 °C, 20 to 24 hours, unit assumed
# Protocol: as §1, §2, §3
# [18] = system: Staphylococcus epidermidis 3519; settings: organism code HH, BHI agar, 35-37 °C, 20 to 24 hours, unit assumed
# Protocol: as §1, §2, §3
# [19] = system: Streptococcus Pneumonia 5649; settings: organism code ZZA, BHI agar, 35-37 °C, 20 to 24 hours, unit assumed
# Protocol: as §1, §2, §3
# [20] = system: Streptococcus Pneumonia 5979; settings: organism code ZZ, BHI agar, 35-37 °C, 20 to 24 hours, unit assumed
# Protocol: as §1, §2, §3
# [21] = system: Streptococcus Pneumonia ATCC6303; settings: organism code XX, BHI agar, 35-37 °C, 20 to 24 hours, unit assumed
# Protocol: as §1, §2, §3
# [22] = system: Streptococcus Pneumonia GYR 1171; settings: organism code YY, BHI agar, 35-37 °C, 20 to 24 hours, unit assumed
# Protocol: as §1, §2, §3
# [23] = system: Streptococcus agalactiae CMX 508; settings: organism code KK, BHI agar, 35-37 °C, 20 to 24 hours, unit assumed
# Protocol: as §1, §2, §3
# [24] = system: Streptococcus bovis A-5169; settings: organism code JJ, BHI agar, 35-37 °C, 20 to 24 hours, unit assumed
# Protocol: as §1, §2, §3
# [25] = system: Streptococcus pyogenes 930; settings: organism code MM, BHI agar, 35-37 °C, 20 to 24 hours, unit assumed
# Protocol: as §1, §2, §3
# [26] = system: Streptococcus pyogenes EES61; settings: organism code LL, BHI agar, 35-37 °C, 20 to 24 hours, unit assumed
# Protocol: as §1, §2, §3
# [27] = system: Streptococcus pyogenes PIU 2548; settings: organism code NN, BHI agar, 35-37 °C, 20 to 24 hours, unit assumed
# Protocol: as §1, §2, §3
compound,measurement,setting,value
"CC[C@H]1OC(=O)[C@H](C)C(=O)[C@H](C)[C@@H](O[C@@H]2O[C@H](C)C[C@H](N(C)C)[C@H]2O)[C@](C)(OCC#Cc2ccc(-c3cccnc3)s2)C[C@@H](C)C(=O)[C@H](C)[C@H]2NC(=O)O[C@@]21C [Example 2, Compound of Formula I: R^b is H, L is -C(O)-, T is -NH-, R is-(CH2)-C≡C-(5-(3-pyridyl)-2-thienyl)]",MIC,[1],> 100 µg/mL
same,MIC,[2],0.05 µg/mL
same,MIC,[3],25 µg/mL
same,MIC,[4],25 µg/mL
same,MIC,[5],0.1 µg/mL
same,MIC,[6],2 µg/mL
same,MIC,[7],0.1 µg/mL
same,MIC,[8],≤ 0.005 µg/mL
same,MIC,[9],0.2 µg/mL
same,MIC,[10],0.05 µg/mL
same,MIC,[11],> 100 µg/mL
same,MIC,[12],> 100 µg/mL
same,MIC,[13],0.05 µg/mL
same,MIC,[14],0.05 µg/mL
same,MIC,[15],0.05 µg/mL
same,MIC,[16],0.05 µg/mL
same,MIC,[17],0.05 µg/mL
same,MIC,[18],0.05 µg/mL
same,MIC,[19],0.12 µg/mL
same,MIC,[20],0.25 µg/mL
same,MIC,[21],0.03 µg/mL
same,MIC,[22],0.03 µg/mL
same,MIC,[23],≤ 0.005 µg/mL
same,MIC,[24],≤ 0.005 µg/mL
same,MIC,[25],3.1 µg/mL
same,MIC,[26],0.01 µg/mL
same,MIC,[27],0.1 µg/mL

# Source: patent publication EP1161438B1, “6-O-SUBSTITUTED MACROLIDES HAVING ANTIBACTERIAL ACTIVITY” (ABBOTT LABORATORIES, priority 1999, dated 2000)
